From US9220706B2, “Inhibition of leukemic stem cells by PP2A activating agents” (Ohio State Innovation Foundation, priority 2012, dated 2015)

Tests used:
[1] = tested on: LSK SCLtTA/BCR-ABL1 cells; assay: CFC/replating assay, leukemic LSK cells; format: cell-based, mouse
Method: Long term culture-initiating cell (LTC-IC) and Colony-forming cell (CFC)/replating assays. 2×10^6 mononuclear CML cells were cultured with a 1:1 mixture of irradiated (80 Gy) IL-3/G-CSF-producing M2-10B4 and IL-3/KL-producing SI/SI murine fibroblasts in MyeloCult H5100 (StemCell Technologies) supplemented with hydrocortisone. Drugs were present during the first week of culture. Medium was replaced after 7 days, followed by weekly half-medium changes. After 6 weeks, adherent and floating cells were harvested and 5×10^4 cells plated into MethoCult H4435. LTC-IC-derived colonies were scored after 14 days. For CFC/replating, individual 14-day colonies from 10^3-10^5 CD34+/CD38− CML or 0.2×10^3-10^3 leukemic LSK cells plated in 0.9% H4435 or M3234 MethoCult, respectively, containing KL, G-CSF, GM-CSF, IL-3, IL-6, and Epo were replated and scored 2 weeks later.

[2] = tested on: CML cells (CFSE^max/CD34^+, CD34^+/CD38^−, CD34^+); assay: Annexin-V/7-AAD apoptosis staining; format: cell-based, human
Method: CFSE-mediated tracking of cell division. Carboxyfluorescein diacetate succinimidyl diester (CFSE)-stained cells (CellTrace CFSE Proliferation Kit: Invitrogen) were cultured in the presence of the indicated drugs (dosed at time zero and at day three), and the cells were harvested after 3 or 6 days in culture, and stained with anti-CD34 PE, Annexin-V V450, and the viability stain 7-AAD (BD Bioscience) to determine the number of viable quiescent cells (CFSEmax/CD34^+/7-AAD− cells) and the percentage of quiescent and apoptosis-committed cells (CFSEmax/CD34+/Annexin V+/7-AAD±). Cells were sorted into dividing and quiescent populations for Western blot analysis. For assessment of mouse quiescent leukemic HSCs, Lin- cells from 8 week-induced SCLtTA/BCR-ABL1 mice were CFSE-stained and used as described above. Quiescent cells (CFSE^max/CD34^+) were reported as a fraction of the initial number of CD34^+ cells.

[3] = tested on: human CML CD34^+ BM cells in NSG mice; format: in vivo
Description: Engraftment of Human Normal and CML Cells in Immnunodeficient NSG Mice and Effect of FTY720 on Leukemic and Normal Hematopoietic Stem/Progenitor Cells. CD34+ cells were isolated from BM of CML patients (n=3) or from umbilical cord blood specimens (UCB; n=3). Note that CML samples were from patients in blastic transformation with ≧75% of Ph+ blasts. Sublethally irradiated (260 rads) 6-8 week-old NOD.Cg-Prkds^scid IL2rg^tm1WjI/SzJ (NSG, Jackson Laboratory) mice were intrafemorally injected with 1-3×10^6 CML or 10^5 UCB CD34^+ cells/mouse. The engraftment was assessed 8 weeks post-transplant by anti-human CD45 (BD Biosciences) and anti-mouse CD45.1 flow staining of intrafemoral BM aspirates and PB from tail vein. Wunderlich et al., Leukemia 24, 1785-1788 (2010). CML- and UCB-engrafted NSG mice were treated for 8 weeks (8-10 mice/group) with either FTY720 (10 mg/kg/day; i.p.) or PBS. Disease evolution and effect of FTY720 on HSC-enriched cell fraction (CD45^+/CD34^+/CD38^−), primitive progenitors (CD45+/CD34+), myeloid (CD45^+/CD34^+/CD33^+), B-cell (CD45^+/CD19^+) and T-cell (CD45^+/CD3^+) compartments were determined before and after 4/8 weeks of FTY720 treatment by FACS-mediated analysis of BM aspirates and/or PB cells. BCR-ABL1 transcript levels were monitored by qRT-PCR-mediated (Ipsogen) analysis of BCR-ABL1/human Abl1 ratios in total RNA samples derived from BM-aspirates of CML-engrafted animals at time of engraftment (time 0) and after 8 weeks of FTY720 treatment. […] These studies were performed by IRB and IACUC approved protocols.
Fluorescent in situ hybridization (FISH). Human CD45+ cells from intrafemoral BM aspirates of untreated and 8 weeks FTY720-treated NSG mice engrafted with CD34+ CML-BC and UCB cells, were FACS-isolated, dropped onto microscope slides, and fixed in a solution of three parts methanol and one part acetic acid. A triple color, dual fusion BCR/ABL1 FISH probe was applied according to the manufacturer's instructions (Kreatech Diagnostics). Hybridized slides were counterstained with DAPI and visualized under an Olympus BX41 microscope. Images were captured using a Hammamatsu Orca II CCD camera and SmartCapture X software (Digital Scientific).

[4] = BM of NSG mice, 4 and 8 weeks FTY720 10 mg/kg/day i.p.

SMILES: CCCCCCCCc1ccc(CCC(N)(CO)CO)cc1 [FTY720]
- reduction in replating efficiency [1]: 70-90%
- apoptosis of CD34^+ CML progenitors in combination with imatinib ([2]; CD34^+ CML progenitors n=10): synergizes with imatinib
- apoptosis of quiescent/HSC-enriched CML cells ([2]; CFSE^max/CD34^+ or CD34^+/CD38^− CML cells): triggered apoptosis
- BCR-ABL1 transcripts (BCR-ABL1/hAbl1) ([3]; BM aspirates of FTY720-treated CML-engrafted mice): significant decrease
- reduction in CD45^+/CD34^+ progenitors [3, 4]: ~85%
- reduction in CD45^+/CD34^+/CD38^− HSCs [3, 4]: ~97%
- reduction in total hCD45^+ cells [3, 4]: ~83%
- Ph^+ hCD45^+/CD33^+ myeloid cells ([3]; CML-engrafted NSG mice): also reduced
- adverse effects or changes in animal behavior ([3]; mouse, in vivo, ip, 10 mg/kg/day): have not been noted
